Consider five compounds from ChEMBL document CHEMBL1201862, “PubChem BioAssay data set” (2004).

What all share (assay): DTP human tumour cell line panel, 48 h
The subject of test [1] is HCT-116.
For test [2], the system named is SNB-19.
Test [3] has as its system EKVX.
Test [4] has as its system IGROV-1.
The test system of test [5] is NCI-H522.
Test [6] relates to MOLT-4.
The subject of test [7] is RPMI-8226.
In test [8] the test system is OVCAR-4.
The test system of test [9] is OVCAR-3.
For test [10], the system named is HT-29.
In test [11] the test system is A498.
Test [12] relates to TK-10.
The test system of test [13] is 786-0.
Test [14] has as its system A549.
Test [15] concerns UACC-257.
Test [16] concerns SK-MEL-5.
Test [17] has as its system SNB-75.

Molecules are shown by their SMILES.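 Compound exposure: 48 hours, 5 concentrations, 96-well plates. GI50 = concentration required for 50% inhibition of growth.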 Calls of active or inactive are those of the source. Cut-off read from the data, not from the text of the source: active = GI50 up to about 1.1 µM and inactive = higher.

`CNC(=O)OCc1c2ccncc2c(C)c2c1[nH]c1ccc(OC)cc12`: the GI50 – broadly, the concentration that inhibits growth by half – in test [1] was 0.156 µM (active); in test [2], 0.267 µM (active); in test [3], 2.21 µM (inactive); in test [4], 0.284 µM (active); in test [5], 0.0805 µM (active); in test [6], 0.0404 µM (active). For the same compound, the concentration for 50% growth inhibition (GI50) was 0.183 µM (active) in test [7]; 0.256 µM (active) in test [8]; 0.311 µM (active) in test [9]; 0.33 µM (active) in [10]; 0.176 µM (active) in [11]; 0.953 µM (active) in [12]. The values for the GI50 in test [13] and in test [14] were 0.156 µM (active) and 0.39 µM (active), respectively.

Take `C=C1C(C)C2C(Cc3ccccc3)NC(=O)C23OC(=O)/C=C\CC(=O)CCC(C)C/C=C/C3C1O` (stereo not drawn): the GI50 in [1] was 2.54 µM (inactive); in test [2], 2.6 µM (inactive); in test [3] it was 2.48 µM (inactive); in test [4], 3.42 µM (inactive); in test [5] it was 0.859 µM (active); in test [6], 0.91 µM (active). Besides, the GI50 was 1.36 µM (inactive) in test [15]; 2.31 µM (inactive) in test [8]; 1.82 µM (inactive) in test [9]; 1.54 µM (inactive) in test [10]; 1.37 µM (inactive) in [11]; 0.0834 µM (active) in test [12]. For the same compound, the GI50 in test [13] is 0.438 µM (active); in test [16], 3.71 µM (inactive); in [14], 4.41 µM (inactive); in test [17] it was 0.413 µM (active).

With `Nc1nc(N)c(-c2ccc(Cl)cc2)c(CCC(=O)Nc2cccc(C(F)(F)F)c2)n1`, the GI50 in test [1], in test [2], in test [3], in [4], in [5] and in test [6] was > 100 µM (inactive) throughout. Also, the GI50 in test [15], in test [8], in test [9], in [10], in test [11] and in [12] was > 100 µM (inactive) throughout. The GI50 in test [13], in test [16], in test [14] and in test [17] was > 100 µM (inactive) throughout.

Regarding `COC(=O)/C(=N\NC(C)(C)C)C(C(=O)OC)C(=O)C(=O)Nc1cc(Cl)ccc1Cl` (stereo not drawn), the GI50 in test [1], in [2], in [3], in test [4], in test [5] and in test [6] was > 100 µM (inactive) throughout. Moreover, the GI50 in test [15], in [8], in test [9], in test [10], in [11] and in [12] was > 100 µM (inactive) throughout. In addition, the GI50 in test [13], in test [16], in [14] and in test [17] was > 100 µM (inactive) throughout.

For the compound `C1C[N+]23CCC[N+]2(C1)CCC3` (stereo not drawn), the GI50 in [1], in test [2], in test [3], in [4], in test [5] and in test [6] was > 100 µM (inactive) in each case. Moreover, the GI50 in test [15], in test [8], in [9], in test [10], in test [11] and in [12] was > 100 µM (inactive) in each case. For the same compound, the GI50 in test [13] was > 100 µM (inactive); in test [16] it was > 100 µM (inactive); in test [14], > 100 µM (inactive); in test [17] it was 97.5 µM (inactive).
